One substance from US11911436B2, “Amphiphilic peptide chaperones and methods of use” (priority 2021, dated 2024) can be followed below.

Marks after values point to notes of the source that are not given here.

Assay [1] concerns wild-type C. elegans (N2). The assay can be described thus: C. elegans N2 lifespan assay at 20° C. with peptide feeding. The following applies: N2 worms. In kind it is in vivo. The procedure: A schematic of an assay of C. elegans N2 lifespan at 20° C. is shown (FIG. 10A). This involved peptide treatment (50 μg) with E. coli OP50 as a food source. Plates were changed every second day with 50 μg fresh peptide and OP50. Scoring of survival was done every day to the last day of survival. 50 mM FUdR was added in experimental plates between D1 and D5 to prevent progeny production.

A further assay relates to C. elegans (N2 strain). The assay can be described thus: Thermotolerance assay, continuous heat stress at 35° C. The class given is in vivo. As to conditions: N2 worms. The procedure: The lifespan of wild type C. elegans with and without peptide at a restrictive temperature was measured.
A schematic representation of the thermotolerance assay used is shown (FIG. 11A). 24 hours of 50 μg peptide treatment at 20° C. of a synchronized population of wild type C. elegans was followed by a continuous heat stress at 35° C. Worms were scored every two hours for 24 hours for survival.

A further assay relates to CL2006 C. elegans. The assay can be described thus: CL2006 lifespan at 20° C. (paralysis and death model). The class given is in vivo. As to conditions: CL2006 worms, 50 μg peptide. The procedure:
CL2006 C. elegans were used as a paralysis and death model. Worms are maintained at 15° C., with adult onset paralysis induced at 20° C.
50 μg CPAMC and CPPRAMC peptide or controls were added to CL2006 worms, and the fraction left alive over time at the restrictive temperature of 20° C. was quantified (FIG. 12). […] (FIG. 12).

The test system of the next assay is CL4176 C. elegans. The experiment in a line: CL4176 Aβ-induced paralysis and survival assay. As to conditions: CL4176 worms. In kind it is in vivo. The procedure:
CL4176 C. elegans is a temperature sensitive strain. Worms are maintained at 15° C. and shifted to increased temperature to cause Aβ-induced paralysis in adults. This has been used as a C. elegans model of Alzheimer's disease.
A scheme of a paralysis assay with CL4176 worms is shown (FIG. 13A). Peptide treatment began on CL4176 embryos and continued throughout the experiment. After 2 days at 15° C., the temperature was increased to the restrictive temperature of 25° C. Worms were scored for survival and paralysis.
Example images of paralyzed and non-paralyzed worms are shown (FIG. 13C).

The test system of assay [2] is C. elegans wild-type (N2 strain). The experiment in a line: Paraquat (PQ)-induced oxidative stress survival. The class given is in vivo. As to conditions: five-day old N2 worms, 50 μg peptide 24 hours, 50 mM PQ. The procedure: Five-day old N2 worms were pretreated with 50 μg peptide for 24 hours and subjected to 50 mM PQ. The survival of the worms was monitored every hour under a microscope until the end of survival. […] The median survival value (50% survival) in CPPRAMC, CPAMC, and CP-SC (control) peptides corresponds to 9.6 h, 8.9 h and 5.9 h, respectively, as compared to vehicle control (5.5 h) (FIG. 14).

The subject of the next assay is C. elegans (N2) worms. The experiment in a line: Juglone (JG)-induced oxidative stress survival. In kind it is in vivo. The following applies: N2 worms at day 5, 50 μg peptide 24 h, 50 μM JG. The procedure: N2 worms at day 5 pretreated for 24 h with 50 μg CPAMC or CP-SC (control) and subjected to 50 μM JG. Survival was checked every hour under a microscope until the end of survival. The median survival value in CPAMC and CP-SC (control) peptides corresponds to 7.3 h and 5.9 h, respectively, compared to vehicle control (4.9 h) (FIG. 15).

The subject of the next assay is human red blood cells. The assay can be described thus: Melittin-induced hemolysis of human RBC. In kind it is cell-based. As to conditions: 2% human RBC, room temperature 30 min, OD 540 nm. The procedure:
Hemolysis of human red blood cells with melittin was measured with varying concentrations of CPAMC (FIG. 3). To 0.3 mL of 2% human RBC (red blood cell) suspension was added 2 μM melittin and/or peptides taken in 0.7 mL of PBS. The tubes were incubated at room temperature for 30 min, centrifuged, and the OD of the supernatant was measured at 540 nm. PBS and PBS containing 0.1% TritonX-100 served as negative and positive control, respectively.
The protective effect of Myr-CPAMC peptide of human red blood cells (RBC) from melittin-induced hemolysis was also examined. To 0.3 mL of 2% human RBC suspension was added to melittin and/or peptide taken in 0.7 mL of PBS. The tubes were incubated at room temperature for 30 min, centrifuged (FIG. 5A) and the OD of the supernatant was measured at 540 nm. PBS and PBS containing 0.1% TritonX-100 served as negative and positive control, respectively.

In assay [3] the test system is human primary lens epithelial (HLE-1°) cells. The assay can be described thus: Melittin cytotoxicity, cell viability imaging. The class given is cell-based. The following applies: 1 μM melittin, 45 min. The procedure: The ability of CPAMC peptide to block the cytotoxic action of melittin on human primary lens epithelial (HLE-1°) cells was investigated. Cell viability imaging was performed with dead cells identified by fluorescent staining. HLE-1° cells cultured on a 96-well plate were treated with 1 μM melittin and/or different concentrations of CPAMC peptide for 45 min. At the end of the incubation, cell viability imaging was done using the EarlyTox cell integrity kit (Molecular Devices, Sunnyvale, Calif.) (FIG. 4A). The percentage of dead cells in each sample was calculated from the live/dead cell imaging data using the Softmax Pro software (FIG. 4B).

A further assay concerns ARPE-19 cells. The experiment in a line: Sodium iodate-induced oxidative stress, DCFH-DA staining. In kind it is cell-based. As to conditions: 7.5 mM sodium iodate, 24 hrs. The procedure: The ability of CPPRAMC and CPAMC to suppress sodium iodate-induced oxidative stress in ARPE-19 cells was also assessed. ARPE-19 cells seeded on a 96-well plate were treated with 7.5 mM of sodium iodate and peptides in 100 μl of serum-free DMEM/F12 media for 24 hrs. The cells were then stained with 10 μM DCFH-DA for 30 min at 37° C. in the dark and the cells were observed under the EVOS FL Auto2 imaging system (Thermo Fisher Scientific, Waltham, Mass., USA) with 10× magnification.

Assay [4] concerns HEK293 IL-6 reporter cells. The experiment in a line: IL-6 signaling, STAT3-stimulated SEAP reporter. As to conditions: human recombinant IL-6 and peptides, 1 hr. In kind it is cell-based. The procedure: HEK293 IL-6 reporter cells were treated with human recombinant IL-6 and the peptides for 1 hr. The STAT3-stimulated SEAP activity in the culture supernatant was measured using QUANTI-Blue solution (InvivoGen) (FIG. 19B).

Take “CH3-LFVIFLVHFSPGRDEDKDEK-NH2 (Me-LFVIFLVHFSPGRDEDKDEK-NH2) [CPAMC, Cell-penetrable, amphiphilic mini chaperone synthesized with L-amino acids]”: the “Median Lifespan (Days ± SE)” value in assay [1] (50 μg peptide with E. coli OP50) was 18.23 ± 0.25 days. For the same substance, the “Increase in median survival (%)” value in assay [1] (50 μg peptide, vs control) is 36* %. For the same substance, the “% increase in survival” value is given as 31* % in the assay on C. elegans (N2 strain) (35° C., 50 μg peptide, vs control) and 11.6% in the assay on CL2006 C. elegans (vs control). The “Median survival ± SE (hours at 35° C.)” value with C. elegans (N2 strain) (24 hours 50 μg peptide at 20° C., then 35° C.) came out at 11.0 ± 0.4 h. Further, the “Median survival ± SE (days at 20° C.)” value in the assay with CL2006 C. elegans is on record as 7.7 ± 0.28 days. In addition, the “delay of Aβ-induced paralysis” value in the assay on CL4176 C. elegans (25° C.) was “delay of CL4176 worm paralysis compared to controls”. Also, the “% increase in median survival” value in the assay on CL4176 C. elegans (25° C., vs control) was found to be 12%. Besides, the “Median survival Hours ± SE” value in the assay with CL4176 C. elegans (2 days at 15° C., then 25° C.) turned out to be 49.6 ± 0.5 h. Besides, the “median survival value (50% survival)” value in assay [2] stood at 8.9 h. This substance also registered a median survival value in the assay on C. elegans (N2) worms of 7.3 h. Besides, the “hemolysis by melittin in presence of peptide” value in the assay on human red blood cells is “Hemolysis decreased as concentration of CPAMC increased”. Further, the “percentage of dead cells with melittin and peptide” value in assay [3] is “blocks the cytotoxic action of melittin”. Also, the “oxidative stress by DCFH-DA staining” value in the assay with ARPE-19 cells is listed as “reduce or block the oxidative stress induced by sodium iodate”. The “IL-6 signaling (STAT3-stimulated SEAP activity)” value in [4] is “IL-6 signaling is also suppressed”.
